These results are taken from PubChem BioAssay AID1963845 (Molecular Pharmacology Branch, DTP, NCI, 2024).

Where “and” joins values, the source holds several entries; their conditions need not be identical. Identical values can stand only once.

As usually defined, the IC50 is the concentration at which inhibition is half-maximal. As a reminder, the viability, T/C is the result in the treated group divided by that in the control group, in per cent.

This test deals with 429239-143-T-J1-PDC complex spheroid viability. The experiment in a line: Anticancer human tumor 429239-143-T-J1-PDC patient-derived small cell lung carcinoma cell line growth inhibition [POLQ]. The settings on record: for viability, T/C: stronger effect = lower value. The method, then:
Multicellular complex tumor spheroid response to Polymerase (POL) inhibitors (novobiocin, ART-558, RP6685) in combination with a variety of drugs and investigational agents in selected tumor cell lines
The POL inhibitors (novobiocin, ART-558, and RP6685) were evaluated both individually and in combination with standard of care and investigational anticancer small molecules within a complex spheroid model of solid tumors. . Complex spheroids include a stromal component modeled by human endothelial cells (HUVEC) and fibroblasts modeled by human mesenchymal stem cells (MSCs). The concentration ranges selected for each drug and investigational agent were based upon clinically achievable concentrations if the clinical Cmax of the agent was known.
Compounds. The drugs and investigational agents: novobiocin (NSC847541), ART-558 (NSC835418), RP-6685 (NSC848927), peposertib (NSC802822), ceralasertib (NSC780249), elimusertib (NSC800525), camonsertib (NSC841442), AZD-1390 (NSC803789), olaparib (NSC753686), talazoparib (NSC767125), rucaparib (NSC756644), sotorasib (NSC818433), MRTX-1133 (NSC836407), SN-38 (NSC673596), topotecan (NSC609699), epotoside (NSC141540), doxorubicin (NSC123127), gemcitabine (NSC613327), 5-fluorouracil (NSC19893), paclitaxel (NSC125973), vemurafenib (NSC761431), MSA-2 (NSC828583), SN-011 (NSC837082), adavosertib (NSC754352), prexasertib (NSC758257), carboplatin (NSC241240) and oxaliplatin (NSC266046), were obtained from the National Cancer Institute (NCI) Developmental Therapeutics Program Chemical Repository (21). The FDA-approved anticancer drug set is available from the Developmental Therapeutics Program at https://dtp.cancer.gov/organization/dscb/obtaining/. […] The stock solutions were prepared in dimethyl sulfoxide (DMSO, Sigma-Aldrich, St. Louis, MO, cat. D2650), except for the platinum compounds which were prepared in saline (Quality Biological, Gaithersburg, MD, cat. 114-055-101), at 800-fold the tested concentration and stored at -70 degrees C prior to their use. All drugs and investigational agents were tested over a range starting from a high concentration at or near the clinical Cmax and decreasing in half-log increments. If the clinical Cmax for an agent had not been determined, the highest concentration tested was 10 microM, except for SN-38, which was tested at a high concentration of 1 microM.
Cell Culture. All cells were maintained in an incubator at 37 degrees C and 5% CO2 with 95% humidity. The PDC lines were cultured according to standard operating procedures established by the NCI PDMR (https://pdmr.cancer.gov). Table 3 of the manuscript, lists the cell lines along with the number of the three cell types plated to form the mct-spheroids and media for tumor cell growth. After thawing, all PDC lines, except 997537-175-T-J1-PDC and 415267-285-R-J2-PDC, were cultured in Matrigel-coated flasks prepared with a working solution of 1X Ham's F-12 nutrient mix, without supplementation (Thermo Fisher Scientific, cat. 11765054), 100 U/mL penicillin-streptomycin (Thermo Fisher Scientific, cat. 15140122), and 2.5% Matrigel (Corning Inc., Corning, NY, cat. 354248) for the first three passages. The two PDC lines 997537-175-T-J1-PDC and 415267-285-R-J2-PDC were cultured on uncoated flasks. The 857933-349-R-J2-PDC line was cultured in 6C/Colon 1B media containing advanced DMEM/F-12 (Thermo Fisher Scientific, cat. 12634028), 10 mM HEPES (Thermo Fisher Scientific, cat. 15630080), 1X GlutaMAX supplement (Thermo Fisher Scientific, cat. 35050061), 0.1 mg/mL primocin (InvivoGen, San Diego, CA, cat. ant-pm-2), 10% defined fetal bovine serum, heat inactivated (HyClone Laboratories Inc., Logan, UT, cat. SH30070.03HI), 50% L-WRN conditioned media (ATCC, cat. CRL-3276), 1.25 mM N-Acetyl-L-cysteine (Sigma-Aldrich, cat. A9165), 10 mM nicotinamide (Sigma-Aldrich, cat. N0636), 1X B-27 supplement (Thermo Fisher Scientific, cat. 17504044), 1X N-2 supplement (Thermo Fisher Scientific, cat. […]
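Further: luminescence signal used as surrogate measure of viable cells; spheroids exposed to compounds for seven days before readout.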
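Wherever viability, T/C is given: 100% = DMSO vehicle control viability as luminescence relative to vehicle.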

For the compound `COc1cc(C2c3cc4c(cc3C(OC3OC5COC(C)OC5C(O)C3O)C3COC(=O)C23)OCO4)cc(OC)c1O` (stereo not drawn) + COC1C(OC(N)=O)C(O)C(Oc2ccc3c(O)c(NC(=O)c4ccc(O)c(CC=C(C)C)c4)c(=O)oc3c2C)OC1(C)C, the IC50 worked out at 302 nM (curve of first compound, second compound 0.0316 µM); 249 nM (curve of first compound, second compound 0.1 µM); 417 nM (curve of first compound, second compound 0.316 µM); 325 nM (curve of first compound, second compound 1 µM); 349 nM (curve of first compound, second compound 3.16 µM); 274 nM (curve of first compound, second compound 10 µM). The viability, T/C is, setting by setting: (second compound 0.0316 µM, first compound 0.0316 µM) 101%; (second compound 0.0316 µM, first compound 0.1 µM) 81.2%; (second compound 0.0316 µM, first compound 0.316 µM) 53%; (second compound 0.0316 µM, first compound 1 µM) 15.8%; (second compound 0.0316 µM, first compound 3.16 µM) 18.2%; (second compound 0.0316 µM, first compound 10 µM) 16.6%. Also, the viability, T/C is, setting by setting: (second compound 0.1 µM, first compound 0.0316 µM) 106%; (second compound 0.1 µM, first compound 0.1 µM) 72%; (second compound 0.1 µM, first compound 0.316 µM) 47.9%; (second compound 0.1 µM, first compound 1 µM) 22%; (second compound 0.1 µM, first compound 3.16 µM) 18.2%; (second compound 0.1 µM, first compound 10 µM) 18.1%. For the same compound, the viability, T/C is, setting by setting: (second compound 0.316 µM, first compound 0.0316 µM) 88.1%; (second compound 0.316 µM, first compound 0.1 µM) 85.3%; (second compound 0.316 µM, first compound 0.316 µM) 59.4%; (second compound 0.316 µM, first compound 1 µM) 20.4%; (second compound 0.316 µM, first compound 3.16 µM) 16.6%; (second compound 0.316 µM, first compound 10 µM) 16.1%. Moreover, the viability, T/C is, setting by setting: (second compound 1 µM, first compound 0.0316 µM) 90.8%; (second compound 1 µM, first compound 0.1 µM) 75.5%; (second compound 1 µM, first compound 0.316 µM) 54%; (second compound 1 µM, first compound 1 µM) 18.6%; (second compound 1 µM, first compound 3.16 µM) 14%; (second compound 1 µM, first compound 10 µM) 17%. The viability, T/C is, setting by setting: (second compound 3.16 µM, first compound 0.0316 µM) 88.4%; (second compound 3.16 µM, first compound 0.1 µM) 88.9%; (second compound 3.16 µM, first compound 0.316 µM) 52.4%; (second compound 3.16 µM, first compound 1 µM) 20.3%; (second compound 3.16 µM, first compound 3.16 µM) 17%; (second compound 3.16 µM, first compound 10 µM) 13.7%. Also, the viability, T/C (second compound 10 µM, first compound 0.0316 µM) is 97.4%; the viability, T/C (second compound 10 µM, first compound 0.1 µM) is 79.1%; the viability, T/C (second compound 10 µM, first compound 0.316 µM) is 47.7%; the viability, T/C (second compound 10 µM, first compound 1 µM) was 18.9%; the viability, T/C (second compound 10 µM, first compound 3.16 µM) is 23%; the viability, T/C (second compound 10 µM, first compound 10 µM) was 14.2%.
As for `CC[C@@]1(O)C(=O)OCc2c1cc1n(c2=O)Cc2cc3c(CN(C)C)c(O)ccc3nc2-1`, the viability, T/C (compound 0.000316 µM) was 98.5% and 98.7% and 92.7%; the viability, T/C (compound 0.001 µM) is 96.4% and 98.7% and 99.2%; the viability, T/C (compound 0.00316 µM) is 99.3% and 95.3% and 99.2%; the viability, T/C (compound 0.01 µM) is 64% and 86.4% and 63.1%; the viability, T/C (compound 0.0316 µM) is 18% and 9.22% and 16.4%; the viability, T/C (compound 0.1 µM) is 16% and 6.06% and 17.5%. Moreover, under “curve of compound”, the IC50 is 14.1 nM and 17.2 nM and 13.9 nM.
In the case of `CC1COCCN1c1cc(C2(O)CC3CCC(C2)O3)c2cnn(-c3ccn[nH]3)c2n1` (stereo not drawn), the viability, T/C (compound 0.0316 µM) is 67.2% and 61.1% and 90.8%; the viability, T/C (compound 0.1 µM) was 45.3% and 34.4% and 78.8%; the viability, T/C (compound 0.316 µM) is 17.6% and 17% and 52.5%; the viability, T/C (compound 1 µM) is 10.2% and 7.95% and 6.96%; the viability, T/C (compound 3.16 µM) is 9.58% and 7.43% and 2.96%; the viability, T/C (compound 10 µM) is 4.72% and 5.39% and 2.25%. Moreover, under “curve of compound”, the half-inhibitory concentration (IC50) is 77.6 nM and 51 nM and 324 nM.
Turning to `C#Cc1c(F)ccc2cc(O)cc(-c3ncc4c(N5CC6CCC(C5)N6)nc(OCC56CCCN5CC(F)C6)nc4c3F)c12` (stereo not drawn), the viability, T/C is 92.4% and 94.3% and 101% (compound 0.0316 µM); 91.3% and 103% and 102% (compound 0.1 µM); 114% and 102% and 96% (compound 0.316 µM); 99% and 112% and 102% (compound 1 µM); 102% and 97.4% and 98.6% (compound 3.16 µM); 84.1% and 91.3% and 103% (compound 10 µM). The half-maximal inhibitory concentration (IC50) (curve of compound) was above 10000 nM.
In the case of `COc1cccc(OCCCN)c1-c1cc(Nc2cnc(C#N)cn2)n[nH]1`, the viability, T/C runs as follows: (compound 0.00316 µM) 92% and 99.1% and 90.2%; (compound 0.01 µM) 79.7% and 103% and 100%; (compound 0.0316 µM) 82.9% and 83.9% and 89.2%; (compound 0.1 µM) 39.7% and 73.7% and 77.4%; (compound 0.316 µM) 31% and 56.7% and 51.6%; (compound 1 µM) 23% and 27% and 41.3%. In addition, under “curve of compound”, the IC50 is 76.2 nM and 390 nM and 384 nM.
For `COc1ccc([C@@H](O)c2cc(-c3ncnc4cc(N5CCOCC5)ccc34)c(F)cc2Cl)nn1`, the viability, T/C (compound 0.0316 µM) was 94.3% and 105% and 106%; the viability, T/C (compound 0.1 µM) is 96% and 95.6% and 99.2%; the viability, T/C (compound 0.316 µM) was 93.8% and 92.8% and 87.8%; the viability, T/C (compound 1 µM) was 87.6% and 96.2% and 92.5%; the viability, T/C (compound 3.16 µM) is 55.4% and 93.5% and 53.1%. For the same compound, for the setting “curve of compound”, the IC50 is 3610 nM and 9970 nM and 3520 nM.
`CCCS(=O)(=O)Nc1ccc(F)c(C(=O)c2c[nH]c3ncc(-c4ccc(Cl)cc4)cc23)c1F`: the viability, T/C is, setting by setting: (compound 0.0316 µM) 94.3% and 101% and 99.8%; (compound 0.1 µM) 96.1% and 110% and 85.9%; (compound 0.316 µM) 100% and 104% and 94.3%; (compound 1 µM) 92.9% and 106% and 89.7%; (compound 3.16 µM) 97.2% and 113% and 91%; (compound 10 µM) 79.2% and 84.4% and 48.5%. Also, the IC50 (curve of compound) is > 10000 nM and 9610 nM.
